Experimental data as given in patent US11702414B2, “Thiadiazole IRAK4 inhibitors” (Gilead Sciences, Inc., priority 2018, dated 2023).
Read-outs that look alike come from different tables or passages of the source.

Key:
IRAK4 enzyme = IRAK4 enzyme (Homo sapiens (Human), UniProt Q9NWZ3); experiment: IRAK4 Biochemical Assay (TR-FRET, STK1 KinEASE)
Description: IRAK4 enzyme (Carna Biosciences, Chuo-ku, Kobe, Japan) activity was measured by detecting phosphorylated peptide substrate formation using an antibody against the phosphorylated peptide substrate. This is a time-resolved fluorescence resonance energy transfer (TR-FRET) immunoassay, based on the STK1 KinEASE Assay (Cisbio, Bedford, Mass.). The assay was designed as a simple two-step, endpoint assay (a 5 μl enzyme reaction followed by 5 μl stop and detect Solution) performed in ProxiPlate-384 Plus plates (Perkin Elmer, Waltham, Mass.). […] Compounds diluted in DMSO were spotted into 384 well plates using a Labcyte® Echo 550 Liquid Handling System prior to addition of IRAK4 enzyme and peptide substrate. Reaction solutions were delivered using a Multi-Flo (Bio-Tek Instruments). The enzyme and peptide solution was incubated with compound for 15 minutes at room temp before the reaction was initiated by the addition of ATP. The standard 5 μl reaction mixture contained 500 μM ATP, 2 μM peptide (STK1 Peptide), 0.75 nM of IRAK4 in reaction buffer (50 mM HEPES, pH 7.0, 0.02% NaN3, 0.01% BSA, 0.1 mM Orthovanadate, 5 mM MgCl2, 0.025% NP-40, 1 mM DTT). After 120 min of incubation at room temperature, 5 μl of Stop and Detect Solution (1:100 Cryptate labeled anti-phosphorylated peptide antibody solution and 125 nM Tracer in a 50 mM HEPES pH 7.0 detection buffer containing sufficient EDTA) was added. The plate was then further incubated for 60 minutes at room temperature and read on Envision 2103 Multilabeled reader (PerkinElmer) with excitation/emission/FRET emission at 340 nm/615 nm/665 nm, respectively. Fluorescence intensities at 615 nm and 665 nm emission wavelengths were expressed as a ratio (665 nm/615 nm). Percentage of inhibition was calculated as below: % Inhibition=100×(RatioSample−Ratio0% Inhibition)/(Ratio100% Inhibition−Ratio0% Inhibition)
The 0% inhibition value comes from control wells lacking inhibitor.

TNFα = experiment: IRAK4 Monocyte TNFα Cell Based Assay; parameters: species or system human; settings: Homo sapiens, Monocyte, read-out: EC50MONO TNF HTRF
Description: IRAK4 Monocyte TNFα Cell Based Assay Procedure:
The cell suspension was then plated at a density of 5,000 cells/well onto black 384 well Greiner clear bottom plates. Plates were pre-spotted with test compounds and serially diluted in DMSO where 40 nL/well were delivered using the Echo 550 acoustic liquid dispenser (Labcyte®) for a final DMSO concentration of 0.1%. Plated cells were treated with compound for 1 hour at 37° C. Cells were then stimulated with 50 pg/ml of LPS (Sigma) excluding outside columns of plate used for unstimulated cell control wells. Cells were incubated for an additional 4 hours at 37° C. Cells were then spun out of the media and 5μl of sample were taken and analyzed for total TNFα content using the TR-FRET Human TNFα detection system (CisBio). This system utilizes two labeled antibodies (cryptate and XL665) that bind to two different epitopes of the TNFα molecule and produce FRET signal proportional to the concentration of TNFα in the sample. Detection antibodies are mixed 50:50 and 5 μL were dispensed into each well. Plates were covered with clear seals and incubated at room temp overnight. […] Percent of control was calculated as follows: % Control=100×(RatioSample−Ratio0% Stimulation)/(Ratio100% Stimulation−Ratio0% Stimulation) where unstimulated cells (0% stimulation) were the negative control and stimulated cells (100% stimulation) were used as the positive control.

[1] = human monocytes, second part of Table 2 (compounds 33-343), unit inferred

IRAK4 enzyme, sequence (Q9NWZ3 whole entry): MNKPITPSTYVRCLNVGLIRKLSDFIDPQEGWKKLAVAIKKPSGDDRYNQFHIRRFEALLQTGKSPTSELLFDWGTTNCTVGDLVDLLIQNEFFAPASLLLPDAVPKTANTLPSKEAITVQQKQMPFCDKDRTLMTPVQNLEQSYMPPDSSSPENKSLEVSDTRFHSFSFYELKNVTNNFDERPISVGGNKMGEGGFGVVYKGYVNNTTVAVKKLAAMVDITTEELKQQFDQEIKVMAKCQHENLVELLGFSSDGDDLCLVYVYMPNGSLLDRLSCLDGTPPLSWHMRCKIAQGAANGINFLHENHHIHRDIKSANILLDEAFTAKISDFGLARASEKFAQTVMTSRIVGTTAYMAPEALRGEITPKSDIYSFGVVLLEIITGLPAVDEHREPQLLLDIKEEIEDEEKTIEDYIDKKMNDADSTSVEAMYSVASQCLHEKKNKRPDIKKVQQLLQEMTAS

Row | Structure (SMILES) | IC50 (IRAK4 enzyme) [nM] | EC50 (TNFα; [1]) [nM] | EC50 (TNFα) [nM]
1 | CC(C)Nc1cc(-c2ccc3cc(C#N)cnn23)ncc1-c1nnc(C2CCN(C3COC3)CC2)s1 [Example 138, 7-(4-(isopropylamino)-5-(5-(1-(oxetan-3-yl)piperidin-4-yl)-1,3,4-thiadiazol-2-yl)pyridin-2-yl)pyrrolo[1,2-b]pyridazine-3-carbonitrile] | 0.61 | 15 | 
2 | CC(=O)N1CC2CC(C1)N2c1nnc(-c2cnc(-c3ccc4cc(C#N)cnn34)cc2NC(C)C)s1 [Compound 261, 7-(5-(5-(3-acetyl-3,6-diazabicyclo[3.1.1]heptan-6-yl)-1,3,4-thiadiazol-2-yl)-4-(isopropylamino)pyridin-2-yl)pyrrolo[1,2-b]pyridazine-3-carbonitrile] | 0.73 |  | 18.3
3 | CC(=O)N[C@@H]1CCN(c2nnc(-c3cnc(-c4ccc5cc(C#N)cnn45)cc3NC(C)C)s2)C1 [Compound 330, (R)-N-(1-(5-(6-(3-cyanopyrrolo[1,2-b]pyridazin-7-yl)-4-(isopropylamino)pyridin-3-yl)-1,3,4-thiadiazol-2-yl)pyrrolidin-3-yl)acetamide] | 1.8 | 47.1 | 
4 | CC(=O)NC1CCC2(CC1)CN(c1nnc(-c3cnc(-c4ccc5cc(C#N)cnn45)cc3NC3COC3)s1)C2 [Example 78, N-(2-(5-(6-(3-cyanopyrrolo[1,2-b]pyridazin-7-yl)-4-(oxetan-3-ylamino)pyridin-3-yl)-1,3,4-thiadiazol-2-yl)-2-azaspiro[3.5]nonan-7-yl)acetamide] | 0.85 | 8.9 | 
5 | CC(=O)N1CCC2(CC1)CN(c1nnc(-c3cnc(-c4ccc5cc(C#N)cnn45)cc3NC3CCOCC3)s1)C2 [Example 76, 7-(5-(5-(7-acetyl-2,7-diazaspiro[3.5]nonan-2-yl)-1,3,4-thiadiazol-2-yl)-4-((tetrahydro-2H-pyran-4-yl)amino)pyridin-2-yl)pyrrolo[1,2-b]pyridazine-3-carbonitrile] | 0.85 | 4.4 | 
6 | CC(=O)NC1CCC2(CC1)CN(c1nnc(-c3cnc(-c4ccc5cc(C#N)cnn45)cc3NC3(C)COC3)s1)C2 [Example 99, N-(2-(5-(6-(3-cyanopyrrolo[1,2-b]pyridazin-7-yl)-4-((3-methyloxetan-3-yl)amino)pyridin-3-yl)-1,3,4-thiadiazol-2-yl)-2-azaspiro[3.5]nonan-7-yl)acetamide] | 0.63 | 5.8 | 
7 | CC(C)Nc1cc(-c2ccc3cc(C#N)cnn23)ncc1-c1nnc(C(=O)N2CC[C@@H](CO)C2)s1 [Example 216, (R)-7-(5-(5-(3-(hydroxymethyl)pyrrolidine-1-carbonyl)-1,3,4-thiadiazol-2-yl)-4-(isopropylamino)pyridin-2-yl)pyrrolo[1,2-b]pyridazine-3-carbonitrile] | 0.78 | 18.1 | 
8 | CC(=O)N1CCC2(CC1)CN(c1nnc(-c3cnc(-c4ccc5cc(C#N)cnn45)cc3NC(C)C)s1)C2 [Example 67, 7-(5-(5-(7-acetyl-2,7-diazaspiro[3.5]nonan-2-yl)-1,3,4-thiadiazol-2-yl)-4-(isopropylamino)pyridin-2-yl)pyrrolo[1,2-b]pyridazine-3-carbonitrile] | 0.59 | 10.4 | 
9 | CC(C)Nc1cc(-c2ccc3cc(C#N)cnn23)ncc1-c1nnc(-n2cccn2)s1 [Compound 325, 7-(5-(5-(1H-pyrazol-1-yl)-1,3,4-thiadiazol-2-yl)-4-(isopropylamino)pyridin-2-yl)pyrrolo[1,2-b]pyridazine-3-carbonitrile] | 8.07 | 1000 | 
10 | CC(=O)N[C@@H]1CN(c2nnc(-c3cnc(-c4ccc5cc(C#N)cnn45)cc3NC(C)C)s2)CC12CC2 [Compound 324, (S)-N-(5-(5-(6-(3-cyanopyrrolo[1,2-b]pyridazin-7-yl)-4-(isopropylamino)pyridin-3-yl)-1,3,4-thiadiazol-2-yl)-5-azaspiro[2.4]heptan-7-yl)acetamide] | 0.99 | 19.1 | 
11 | CC(=O)N1CC2CCC(C1)N2c1nnc(-c2cnc(-c3ccc4cc(C#N)cnn34)cc2NC(C)C)s1 [Compound 260, 7-(5-(5-(3-acetyl-3,8-diazabicyclo[3.2.1]octan-8-yl)-1,3,4-thiadiazol-2-yl)-4-(isopropylamino)pyridin-2-yl)pyrrolo[1,2-b]pyridazine-3-carbonitrile] | 2.56 |  | 15.8
12 | CC(=O)N1C2CC1CN(c1nnc(-c3cnc(-c4ccc5cc(C#N)cnn45)cc3NC(C)C)s1)C2 [Compound 258, 7-(5-(5-(6-acetyl-3,6-diazabicyclo[3.1.1]heptan-3-yl)-1,3,4-thiadiazol-2-yl)-4-(isopropylamino)pyridin-2-yl)pyrrolo[1,2-b]pyridazine-3-carbonitrile] | 1.26 |  | 5.8
13 | CC(=O)NC1CCC2(CC1)CN(c1nnc(-c3cnc(-c4ccc5cc(C#N)cnn45)cc3N[C@H](C)C#N)s1)C2 [Example 77, (R)-N-(2-(5-(4-((1-cyanoethyl)amino)-6-(3-cyanopyrrolo[1,2-b]pyridazin-7-yl)pyridin-3-yl)-1,3,4-thiadiazol-2-yl)-2-azaspiro[3.5]nonan-7-yl)acetamide] | 1.06 | 3.9 | 
14 | CC(C)Nc1cc(-c2ccc3cc(C#N)cnn23)ncc1-c1nnc(N2CCC(C)(O)CC2)s1 [Example 287, 7-(5-(5-(4-hydroxy-4-methylpiperidin-1-yl)-1,3,4-thiadiazol-2-yl)-4-(isopropylamino)pyridin-2-yl)pyrrolo[1,2-b]pyridazine-3-carbonitrile] | 0.86 | 9.8 | 
15 | CC(=O)NC[C@H]1CCCN1C(=O)c1nnc(-c2cnc(-c3ccc4cc(C#N)cnn34)cc2NC(C)C)s1 [Example 42, (R)-N-((1-(5-(6-(3-cyanopyrrolo[1,2-b]pyridazin-7-yl)-4-(isopropylamino)pyridin-3-yl)-1,3,4-thiadiazole-2-carbonyl)pyrrolidin-2-yl)methyl)acetamide] | 1.5 | 35.7 | 
16 | CC(=O)N[C@@H]1C[C@H]2C[C@@H]1CN2c1nnc(-c2cnc(-c3ccc4cc(C#N)cnn34)cc2NC(C)C)s1 [Example 73, N-((1R,4R,5R)-2-(5-(6-(3-cyanopyrrolo[1,2-b]pyridazin-7-yl)-4-(isopropylamino)pyridin-3-yl)-1,3,4-thiadiazol-2-yl)-2-azabicyclo[2.2.1]heptan-5-yl)acetamide] | 0.61 | 64.1 | 
17 | CC(C)Nc1cc(-c2ccc3cc(C#N)cnn23)ncc1-c1nnc(CC#N)s1 [Compound 321, 7-(5-(5-(cyanomethyl)-1,3,4-thiadiazol-2-yl)-4-(isopropylamino)pyridin-2-yl)pyrrolo[1,2-b]pyridazine-3-carbonitrile] | 1.46 | 53.5 | 
18 | CC(=O)N1CCN(c2nnc(-c3cnc(-c4ccc5cc(C#N)cnn45)cc3NC(C)C)s2)CC1 [Compound 232, 7-(5-(5-(4-acetylpiperazin-1-yl)-1,3,4-thiadiazol-2-yl)-4-(isopropylamino)pyridin-2-yl)pyrrolo[1,2-b]pyridazine-3-carbonitrile] | 0.62 | 7.4 | 
19 | CC(=O)NC1CC2CC1CC2c1nnc(-c2cnc(-c3ccc4cc(C#N)cnn34)cc2NC(C)C)s1 (stereo not shown) [Example 285, N-(5-(5-(6-(3-cyanopyrrolo[1,2-b]pyridazin-7-yl)-4-(isopropylamino)pyridin-3-yl)-1,3,4-thiadiazol-2-yl)bicyclo[2.2.1]heptan-2-yl)acetamide] | 0.78 | 68 | 
20 | CC(C)Nc1cc(-c2ccc3cc(C#N)cnn23)ncc1-c1nnc(N2CC3CCC(C2)C3(O)C(F)(F)F)s1 (stereo not shown) [Example 159, 7-(5-(5-(8-hydroxy-8-(trifluoromethyl)-3-azabicyclo[3.2.1]octan-3-yl)-1,3,4-thiadiazol-2-yl)-4-(isopropylamino)pyridin-2-yl)pyrrolo[1,2-b]pyridazine-3-carbonitrile] | 6.38 | 25.7 | 
